Experimental data from ChEMBL document CHEMBL6078622, “Enhancing outer membrane permeability of tetracycline antibiotics in P. aeruginosa using TOB-CIP conjugates” (RSC Med Chem, 2024).

Experiments:
Pseudomonas aeruginosa [1] = assay: Synergistic antibacterial activity against Pseudomonas aeruginosa PA114228 assessed as fold change in tigecycline MIC by CLSI based broth-microdilution method relative to tigecycline alone; assay type: functional
Pseudomonas aeruginosa [2] = assay: Synergistic antibacterial activity against Pseudomonas aeruginosa PA264 assessed as fractional inhibitory concentration index in presence of tigecycline by checkerboard assay; assay type: functional
Pseudomonas aeruginosa [3] = assay: Antibacterial activity against Pseudomonas aeruginosa PA100036 assessed as inhibition of visible bacterial growth by CLSI based broth-microdilution method; assay type: functional
HEK293 = assay: Cytotoxicity against HEK293 cells assessed as reduction in cell viability at 162 uM; assay type: toxicity, cell-based; conditions: human, hek293, 162 µM
Pseudomonas aeruginosa [4] = assay: Antibacterial activity against Pseudomonas aeruginosa PA262 assessed as minocycline MIC by CLSI based broth-microdilution method; assay type: functional
HepG2 = assay: Cytotoxicity against human HepG2 cells assessed as inhibition of cell vitality at 162 uM; assay type: functional; set-up: scale not given: the % may be the effect or the level left
Pseudomonas aeruginosa [5] = assay: Synergistic antibacterial activity against Pseudomonas aeruginosa PA101243 assessed as fractional inhibitory concentration index in presence of doxycycline by checkerboard assay; assay type: functional
Pseudomonas aeruginosa [6] = assay: Synergistic antibacterial activity against Pseudomonas aeruginosa PA114228 in presence of tigecycline by checkerboard assay; assay type: functional
Pseudomonas aeruginosa [7] = assay: Synergistic antibacterial activity against Pseudomonas aeruginosa PA095 assessed as fold change in eravacycline MIC by CLSI based broth-microdilution method relative to eravacycline alone; assay type: functional
Pseudomonas aeruginosa [8] = assay: Synergistic antibacterial activity against Pseudomonas aeruginosa PA100036 assessed as fold change in eravacycline MIC by CLSI based broth-microdilution method relative to eravacycline alone; assay type: functional
Pseudomonas aeruginosa [9] = assay: Antibacterial activity against Pseudomonas aeruginosa PA101243 assessed as tigecycline MIC by CLSI based broth-microdilution method; assay type: functional
Pseudomonas aeruginosa [10] = assay: Synergistic antibacterial activity against Pseudomonas aeruginosa PA114228 in presence of minocycline by checkerboard assay; assay type: functional
Pseudomonas aeruginosa [11] = assay: Synergistic antibacterial activity against Pseudomonas aeruginosa PA100036 assessed as fractional inhibitory concentration index in presence of doxycycline by checkerboard assay; assay type: functional
Pseudomonas aeruginosa [12] = assay: Synergistic antibacterial activity against Pseudomonas aeruginosa PA101243 in presence of doxycycline by checkerboard assay; assay type: functional
Pseudomonas aeruginosa [13] = assay: Synergistic antibacterial activity against Pseudomonas aeruginosa PA095 in presence of doxycycline by checkerboard assay; assay type: functional
Pseudomonas aeruginosa [14] = assay: Synergistic antibacterial activity against Pseudomonas aeruginosa PA100036 assessed as fold change in minocycline MIC by CLSI based broth-microdilution method relative to minocycline alone; assay type: functional
Pseudomonas aeruginosa [15] = assay: Antibacterial activity against Pseudomonas aeruginosa PA200 assessed as inhibition of visible bacterial growth by CLSI based broth-microdilution method; assay type: functional
Pseudomonas aeruginosa [16] = assay: Synergistic antibacterial activity against Pseudomonas aeruginosa PA264 in presence of eravacycline by checkerboard assay; assay type: functional
Pseudomonas aeruginosa [17] = assay: Synergistic antibacterial activity against Pseudomonas aeruginosa PA114228 assessed as fold change in eravacycline MIC by CLSI based broth-microdilution method relative to eravacycline alone; assay type: functional
Pseudomonas aeruginosa [18] = assay: Antibacterial activity against Pseudomonas aeruginosa PAO1 assessed as inhibition of bacterial growth by measuring fold change in MIC in presence of 25 % fetal bovine serum by CLSI protocol based assay; assay type: functional
Pseudomonas aeruginosa [19] = assay: Synergistic antibacterial activity against Pseudomonas aeruginosa PAO1 assessed as fold change in minocycline MIC by checkerboard analysis relative to minocycline alone; assay type: functional
Pseudomonas aeruginosa [20] = assay: Synergistic antibacterial activity against Pseudomonas aeruginosa PA264 assessed as fold change in eravacycline MIC by CLSI based broth-microdilution method relative to eravacycline alone; assay type: functional
Pseudomonas aeruginosa [21] = assay: Antibacterial activity against Pseudomonas aeruginosa PA100036 assessed as doxycycline MIC by CLSI based broth-microdilution method; assay type: functional
Pseudomonas aeruginosa [22] = assay: Synergistic antibacterial activity against Pseudomonas aeruginosa PA262 in presence of tigecycline by checkerboard assay; assay type: functional
Pseudomonas aeruginosa [23] = assay: Synergistic antibacterial activity against Pseudomonas aeruginosa PA095 in presence of eravacycline by checkerboard assay; assay type: functional
Pseudomonas aeruginosa [24] = assay: Synergistic antibacterial activity against Pseudomonas aeruginosa PA100036 assessed as fold change in doxycycline MIC by CLSI based broth-microdilution method relative to doxycycline alone; assay type: functional
Escherichia coli = assay: Antibacterial activity against Escherichia coli ATCC 25922 assessed as inhibition of visible bacterial growth by CLSI based broth-microdilution method; assay type: functional
Pseudomonas aeruginosa [25] = assay: Synergistic antibacterial activity against Pseudomonas aeruginosa PA101243 assessed as fold change in eravacycline MIC by CLSI based broth-microdilution method relative to eravacycline alone; assay type: functional
Pseudomonas aeruginosa [26] = assay: Antibacterial activity against Pseudomonas aeruginosa PA259 assessed as doxycycline MIC by CLSI based broth-microdilution method; assay type: functional
Pseudomonas aeruginosa [27] = assay: Synergistic antibacterial activity against Pseudomonas aeruginosa PA200 in presence of eravacycline by checkerboard assay; assay type: functional
Pseudomonas aeruginosa [28] = assay: Synergistic antibacterial activity against Pseudomonas aeruginosa PA200 assessed as fold change in tigecycline MIC by CLSI based broth-microdilution method relative to tigecycline alone; assay type: functional
Pseudomonas aeruginosa [29] = assay: Synergistic antibacterial activity against Pseudomonas aeruginosa PA114228 assessed as fractional inhibitory concentration index in presence of tigecycline by checkerboard assay; assay type: functional
Pseudomonas aeruginosa [30] = assay: Synergistic antibacterial activity against Pseudomonas aeruginosa PA259 in presence of minocycline by checkerboard assay; assay type: functional
Pseudomonas aeruginosa [31] = assay: Antibacterial activity against Pseudomonas aeruginosa PA264 assessed as doxycycline MIC by CLSI based broth-microdilution method; assay type: functional
Pseudomonas aeruginosa [32] = assay: Synergistic antibacterial activity against Pseudomonas aeruginosa PA101243 assessed as fold change in doxycycline MIC by CLSI based broth-microdilution method relative to doxycycline alone; assay type: functional
Pseudomonas aeruginosa [33] = assay: Synergistic antibacterial activity against Pseudomonas aeruginosa PA262 assessed as fractional inhibitory concentration index in presence of tigecycline by checkerboard assay; assay type: functional
Pseudomonas aeruginosa [34] = assay: Synergistic antibacterial activity against Pseudomonas aeruginosa PA100036 in presence of minocycline by checkerboard assay; assay type: functional
Pseudomonas aeruginosa [35] = assay: Synergistic antibacterial activity against Pseudomonas aeruginosa PA095 in presence of tigecycline by checkerboard assay; assay type: functional
Pseudomonas aeruginosa [36] = assay: Synergistic antibacterial activity against Pseudomonas aeruginosa PA264 assessed as fractional inhibitory concentration index in presence of doxycycline by checkerboard assay; assay type: functional
Pseudomonas aeruginosa [37] = assay: Antibacterial activity against Pseudomonas aeruginosa PA200 assessed as tigecycline MIC by CLSI based broth-microdilution method; assay type: functional
Pseudomonas aeruginosa [38] = assay: Synergistic antibacterial activity against Pseudomonas aeruginosa PA200 assessed as fractional inhibitory concentration index in presence of minocycline by checkerboard assay; assay type: functional
Pseudomonas aeruginosa [39] = assay: Synergistic antibacterial activity against Pseudomonas aeruginosa PA100036 in presence of eravacycline by checkerboard assay; assay type: functional
Pseudomonas aeruginosa [40] = assay: Antibacterial activity against Pseudomonas aeruginosa PAO1 assessed as inhibition of bacterial growth by measuring fold change in MIC in presence of 5 % fetal bovine serum by CLSI protocol based assay; assay type: functional
Pseudomonas aeruginosa [41] = assay: Antibacterial activity against Pseudomonas aeruginosa PA200 assessed as doxycycline MIC by CLSI based broth-microdilution method; assay type: functional
Pseudomonas aeruginosa [42] = assay: Synergistic antibacterial activity against Pseudomonas aeruginosa PAO1 assessed as fold change in doxycycline MIC by checkerboard analysis relative to doxycycline alone; assay type: functional
Pseudomonas aeruginosa [43] = assay: Synergistic antibacterial activity against Pseudomonas aeruginosa PA100036 in presence of tigecycline by checkerboard assay; assay type: functional

MIC (Pseudomonas aeruginosa [3]): > 128 µg/mL
MIC (Pseudomonas aeruginosa [4]): 2 µg/mL
MIC (Pseudomonas aeruginosa [6]): 8 µg/mL
MIC (Pseudomonas aeruginosa [9]): 4 µg/mL
MIC (Pseudomonas aeruginosa [10]): 8 µg/mL
MIC (Pseudomonas aeruginosa [12]): 8 µg/mL
MIC (Pseudomonas aeruginosa [13]): 2 µg/mL
MIC (Pseudomonas aeruginosa [15]): 32 µg/mL
MIC (Pseudomonas aeruginosa [16]): 8 µg/mL
MIC (Pseudomonas aeruginosa [21]): 1 µg/mL
MIC (Pseudomonas aeruginosa [22]): 8 µg/mL
MIC (Pseudomonas aeruginosa [23]): 2 µg/mL
MIC (Escherichia coli): > 128 µg/mL
MIC (Pseudomonas aeruginosa [26]): 0.5 µg/mL
MIC (Pseudomonas aeruginosa [27]): 8 µg/mL
MIC (Pseudomonas aeruginosa [30]): 8 µg/mL
MIC (Pseudomonas aeruginosa [31]): 0.5 µg/mL
MIC (Pseudomonas aeruginosa [34]): 8 µg/mL
MIC (Pseudomonas aeruginosa [35]): 2 µg/mL
MIC (Pseudomonas aeruginosa [37]): 0.25 µg/mL
MIC (Pseudomonas aeruginosa [39]): 8 µg/mL
MIC (Pseudomonas aeruginosa [41]): 2 µg/mL
MIC (Pseudomonas aeruginosa [43]): 8 µg/mL
Structure (SMILES): Cl.Cl.Cl.Cl.Cl.Cl.NC[C@H]1O[C@H](O[C@H]2[C@H](OCCCCCCCCCCCCNC(=O)c3cn(C4CC4)c4cc(N5CCNCC5)c(F)cc4c3=O)[C@@H](O[C@H]3O[C@H](CO)[C@@H](O)[C@H](N)[C@H]3O)[C@H](N)C[C@@H]2N)[C@H](N)C[C@@H]1O
fold change (FC) (Pseudomonas aeruginosa [1]): 128
fractional inhibitory concentration index (FICI) (Pseudomonas aeruginosa [2]): 0.004
Activity (HEK293): 60%
Activity (HepG2): 40%
fractional inhibitory concentration index (FICI) (Pseudomonas aeruginosa [5]): 0.25
fold change (FC) (Pseudomonas aeruginosa [7]): 4
fold change (FC) (Pseudomonas aeruginosa [8]): 256
fractional inhibitory concentration index (FICI) (Pseudomonas aeruginosa [11]): 0.004
fold change (FC) (Pseudomonas aeruginosa [14]): 256
fold change (FC) (Pseudomonas aeruginosa [17]): 256
fold change (FC) (Pseudomonas aeruginosa [18]): 128
fold change (FC) (Pseudomonas aeruginosa [19]): 64
fold change (FC) (Pseudomonas aeruginosa [20]): 64
fold change (FC) (Pseudomonas aeruginosa [24]): 128
fold change (FC) (Pseudomonas aeruginosa [25]): 4
fold change (FC) (Pseudomonas aeruginosa [28]): 16
fractional inhibitory concentration index (FICI) (Pseudomonas aeruginosa [29]): 0.25
fold change (FC) (Pseudomonas aeruginosa [32]): 2
fractional inhibitory concentration index (FICI) (Pseudomonas aeruginosa [33]): 0.008
fractional inhibitory concentration index (FICI) (Pseudomonas aeruginosa [36]): 0.015
fractional inhibitory concentration index (FICI) (Pseudomonas aeruginosa [38]): 0.312
fold change (FC) (Pseudomonas aeruginosa [40]): >128
fold change (FC) (Pseudomonas aeruginosa [42]): 64
